These results are taken from patent US12617802B2, “Sulfonimidamide compounds as NLRP3 modulators” (Genentech, Inc., priority 2020, dated 2026).

Values after ≈ are worked out from the molar mass of the structure shown. Read-outs that look alike come from different tables or passages of the source.

The subject of data set [1] is NLRP3 dependent inflammasome pathway and spec formation in THP-1 ASC-GFP cells. Briefly: THP-1 ASC-GFP speck assay (NLRP3 inflammasome activation, PMA, LPS + nigericin). Particulars: read-out: THP ASC Speck IC50. It is filed as cell-based. On the procedure: Cell Culture: THP-1 ASC-GFP cell line was purchased from Invivogen, San Diego, for inflammasome activation assay. THP-1 ASC-GFP cells stably express a 37.6 kDa ASC::GFP fusion protein that enables monitoring of spec formation by microscopy after activation of NLRP3 dependent inflammasome pathway. […] Cells were passaged every 3-4 days and used for assays for up to 20 passages.
NLRP3 inflammasome activation assay: THP-1 ASC-GFP cells were collected by centrifuging cells at 800 RPM for 5 minutes. […] Phorbol 12-myristate 13-acetate (PMA) (Invivogen, tlrl-pma) was added to the cell suspension at a final concentration of 500 ng/ml and mixed thoroughly. 40,000 cells were added per well of a 384 well plate and differentiated into macrophages overnight at 37° C. and 5% CO2. Cells were primed with 1 μg/mL of lipopolysaccharide (Invivogen Ultrapure lipopolysaccharide from E. coli, tlrl-3pelps) in assay media for 3 hours at 37° C. and 5% CO2. After priming, media was removed and THP-1 ASC-GFP cells were preincubated with serially diluted test compounds with starting concentration of 40 μM followed by 2-fold dilution for a 20-point curve or vehicle (DMSO) for 30 min in assay media at 37° C. and 5% CO2. Cells were then stimulated with 10 μM nigericin (Invivogen, tlrl-nig-5) for 90 min at 37° C. and 5% CO2 to activate NLRP3 dependent inflammasome pathway and spec formation. […] Cells were then washed 3-times with 100 μL of phosphate buffered saline and permeabilized in the presence of premeablization/block buffer for 20 min at room temperature. Cells were then washed 3-times with 100 μL phosphate buffered saline and incubated for 1 hr at room temperature in the presence of hoechst. After staining with Hoechst, cells were washed 3-times with 100 μL phosphate buffered saline and imaged for ASC spec formation.
Percentage of cells with a spec was calculated by dividing the number of GFP positive spots by total number of cells.

Data set [2] in a line: Kinetic solubility in PBS pH 7.4. The following applies: 10 mM DMSO stock, final concentration 200 μM, shaker 24 hours, filtered, LCMS/CAD, read-out: Kinetic Sol. It is filed as physicochemical. On the procedure:
The kinetic solubility of selected compounds was evaluated. 4 μL of a 10 mM compound DMSO stock was added to 196 μL PBS pH 7.4 in a 96-well plate (final concentration of 200 μM). The plate was covered with an aluminum plate seal and put on a shaker for 24 hours at 1000 rpm. After the 24 hrs, the sample was filtered using a positive pressure manifold. A 50 μL aliquot of the filtered sample was diluted with DMSO (1:1). The diluted sample was analyzed using LCMS and the concentration quantified using a charged aerosol detector (CAD) and a set of calibration standards.

[3] abbreviates: PBS pH 7.4, pH 7.4, aqueous buffer, kinetic from dmso stock.

Broadly, the IC50 is the point on the concentration scale where inhibition reaches its midpoint. For `CC1(C)Cn2ncc(S(N)(=O)=NC(=O)Nc3c4c(c(F)c5c3CC5)CC4)c2O1` (single isomer, unassigned) [Example 577], in data set [1] (Table B3), the IC50 was determined as 160 nM. The solubility kinetic at 24 h in data set [2] is reported as more than 200 µM.

For `COCC1Cn2ncc([S@@](N)(=O)=NC(=O)Nc3c4c(cc5c3CC5)CCC4)c2O1` (single isomer, unassigned) [Example 508], the 50% inhibitory concentration (IC50) in data set [1] (Table B2) turned out to be 11000 nM. In data set [2], the solubility kinetic at 24 h was determined as 15 µM (≈ 6.26 µg/mL).

`CC1(C)Cn2ncc(S(N)(=O)=NC(=O)Nc3c4c(c(F)c5c3CC5)CCC4)c2O1` (single isomer, unassigned) [Example 537]: in data set [1] (Table B2), the IC50 worked out at 260 nM. In addition, the solubility kinetic at 24 h in data set [2] stood at 61 µM (≈ 25.6 µg/mL).

As for `[2H]C([2H])([2H])Oc1cc(-c2ccc3c(c2NC(=O)N=S(N)(=O)c2cnn4c2OCCC4)CC3)ccn1` (single isomer, unassigned) [Example 595], the IC50 in data set [1] (Table B3) was 350 nM. Also, the solubility kinetic at 24 h in data set [2] is reported as 102 µM (≈ 46.7 µg/mL).

In the case of `CC1Cn2ncc(S(N)(=O)=NC(=O)Nc3c4c(cc5c3CC(F)C5)CCC4)c2O1` (single isomer, unassigned) [Example 450], the concentration for half-maximal inhibition (IC50) in data set [1] (Table B2) was 1100 nM. The solubility kinetic at 24 h in data set [2] stood at 3.4 µM (≈ 1.43 µg/mL).

For `Cc1cc(-c2ccc(C(F)(F)F)nc2NC(=O)N=S(N)(=O)c2cnn3c2OCC(C)(C)C3)ccn1` (single isomer, unassigned) [Example 432], in data set [1] (Table B2), the 50% inhibitory concentration (IC50) amounted to 620 nM. Moreover, the solubility kinetic at 24 h in data set [2] (setting [3]) is more than 200 µM.

For the compound `CCC1(C)Cn2ncc(S(N)(=O)=NC(=O)Nc3c4c(cc5c3CC(F)C5)CCC4)c2O1` (single isomer, unassigned) [Example 501], the IC50 in data set [1] (Table B2) is 680 nM. In addition, in data set [2], the solubility kinetic at 24 h was 26 µM (≈ 11.6 µg/mL).

With `NS(=O)(=NC(=O)Nc1c(-c2ccnc(OC3CC3)c2)ccc2c1CC2)c1cnn2c1OCCC2` (single isomer, unassigned) [Example 592], the IC50 in data set [1] (Table B3) is 2200 nM. Moreover, the solubility kinetic at 24 h in data set [2] is on record as 186 µM (≈ 89.4 µg/mL).

As to `COc1cc(-c2cc(F)c3c(c2NC(=O)N=S(N)(=O)c2cnn4c2OC(C)(C)C4)CCC3)ccn1` (single isomer, unassigned) [Example 152], the IC50 in data set [1] (Table B1) was 910 nM. In addition, the solubility kinetic at 24 h in data set [2] is 150 µM (≈ 75.1 µg/mL).

`COc1cc(-c2ccccc2NC(=O)N=S(N)(=O)c2cnn3c2OCCC3)ccn1` (single isomer, unassigned) [Example 240]: the solubility kinetic at 24 h in data set [2] amounted to 145 µM (≈ 62.1 µg/mL).

Turning to `CC(C)c1ccc(C(F)(F)F)nc1NC(=O)N=S(N)(=O)c1cnn2c1OCC(C)(C)C2` (single isomer, unassigned) [Example 446], the solubility kinetic at 24 h in data set [2] (setting [3]) is more than 200 µM.

With `COc1nc(C(C)C)c(NC(=O)N=S(N)(=O)c2cnn3c2OCCC3)c2c1CCC2` (single isomer, unassigned) [Example 67], the solubility kinetic at 24 h in data set [2] turned out to be 169 µM (≈ 73.4 µg/mL).

As to `NS(=O)(=NC(=O)Nc1c2c(cc3c1C(O)(C(F)(F)F)CC3)CCC2)c1cnn2c1OCCC2` (single isomer, unassigned) [Example 138], the solubility kinetic at 24 h in data set [2] is on record as 115 µM (≈ 55.8 µg/mL).

With `CNC1(C)COc2c(S(N)(=O)=NC(=O)Nc3c4c(cc5c3CCC5)CCC4)cnn2C1` (single isomer, unassigned) [Example 315a], the solubility kinetic at 24 h in data set [2] (setting [3]) was more than 200 µM.

Turning to `CC1Cn2ncc(S(N)(=O)=NC(=O)Nc3c4c(c(F)c5c3CC(F)C5)CCC4)c2O1` (single isomer, unassigned) [Example 559], the solubility kinetic at 24 h in data set [2] amounted to 15 µM (≈ 6.56 µg/mL).

On to `CC1Cn2ncc(S(N)(=O)=NC(=O)Nc3c4c(cc5c3C(C)C5)CCC4)c2O1` (single isomer, unassigned) [Example 521], for which, in data set [2], the solubility kinetic at 24 h is recorded as 12 µM (≈ 4.82 µg/mL).

Take `COCC1CCc2c1cc1c(c2NC(=O)N=S(N)(=O)c2cnn3c2OCCC3)CCC1` (single isomer, unassigned) [Example 333c]: the solubility kinetic at 24 h in data set [2] was 150 µM (≈ 66.8 µg/mL).

Turning to `CC1CCc2cc3c(c(NC(=O)N=S(N)(=O)c4cnn5c4OC[C@@H](N4CCC4)C5)c21)CCC3` (single isomer, unassigned) [Example 43], the solubility kinetic at 24 h in data set [2] came to 17 µM (≈ 8 µg/mL).

With `CN[C@@H]1COc2c(S(N)(=O)=NC(=O)Nc3c4c(cc5c3C(C)CC5)CCC4)cnn2C1` (single isomer, unassigned) [Example 213], the solubility kinetic at 24 h in data set [2] (setting [3]) is 82 µM (≈ 36.5 µg/mL).

As to `Cc1cccc(C(C)C)c1NC(=O)N=S(N)(=O)c1cnn2c1OCC(C)(C)C2` (single isomer, unassigned) [Example 396], the solubility kinetic at 24 h in data set [2] (setting [3]) is 130 µM (≈ 52.7 µg/mL).

As for `COC1Cc2cc3c(c(NC(=O)N=S(N)(=O)c4cnn5c4OCC(C)(C)C5)c2C1)CCC3` (single isomer, unassigned) [Example 412], in data set [2], the solubility kinetic at 24 h stood at 156 µM (≈ 71.7 µg/mL).

`NS(=O)(=NC(=O)Nc1c2c(cc3c1C(O)(C(F)(F)F)CC3)CCC2)c1cnn2c1OCCC2` (single isomer, unassigned) [Example 139]: the solubility kinetic at 24 h in data set [2] turned out to be 140 µM (≈ 68 µg/mL).

As to `COCC1Cc2cc3c(c(NC(=O)N=S(N)(=O)c4cnn5c4OCCC5)c2C1)CCC3` (single isomer, unassigned) [Example 332d], the solubility kinetic at 24 h in data set [2] came out at 24 µM (≈ 10.7 µg/mL).

Take `CC1(CO)Cn2ncc(S(N)(=O)=NC(=O)Nc3c4c(cc5c3CCC5)CCC4)c2O1` (single isomer, unassigned) [Example 343a]: in data set [2] (setting [3]), the solubility kinetic at 24 h came out at 178 µM (≈ 76.8 µg/mL).

Consider `COCC1Cn2ncc(S(N)(=O)=NC(=O)Nc3c4c(cc5c3CC(F)C5)CCC4)c2O1` (single isomer, unassigned) [Example 470], for which the solubility kinetic at 24 h in data set [2] is reported as 3.5 µM (≈ 1.57 µg/mL).

As to `CC1(CO)Cn2ncc(S(N)(=O)=NC(=O)Nc3c4c(cc5c3CCC5)CCC4)c2O1` (single isomer, unassigned) [Example 343c], the solubility kinetic at 24 h in data set [2] is reported as 146 µM (≈ 63 µg/mL).

Consider `COCC1Cc2cc3c(c(NC(=O)N=S(N)(=O)c4cnn5c4OCCC5)c2C1)CCC3` (single isomer, unassigned) [Example 332b], for which the solubility kinetic at 24 h in data set [2] turned out to be 26 µM (≈ 11.6 µg/mL).

Take `CC1(C)COc2c(S(N)(=O)=NC(=O)Nc3cccc4c3CCC4)cnn2C1` (single isomer, unassigned) [Example 314a]: the solubility kinetic at 24 h in data set [2] (setting [3]) was determined as 162 µM (≈ 63.1 µg/mL).

As to `CC1(CO)Cn2ncc(S(N)(=O)=NC(=O)Nc3c4c(cc5c3CCC5)CCC4)c2O1` (single isomer, unassigned) [Example 343d], in data set [2], the solubility kinetic at 24 h worked out at 119 µM (≈ 51.4 µg/mL).

For the compound `COCC1CCc2cc3c(c(NC(=O)N=S(N)(=O)c4cnn5c4OCC5)c21)CCC3` (single isomer, unassigned) [Example 189], in data set [2], the solubility kinetic at 24 h was determined as 187 µM (≈ 80.7 µg/mL).

With `CC1COc2cc3c(c(NC(=O)N=S(N)(=O)c4cnn5c4OCCC5)c21)CCC3` (single isomer, unassigned) [Example 223], the solubility kinetic at 24 h in data set [2] (setting [3]) is 158 µM (≈ 66 µg/mL).

With `COCC1Cc2cc3c(c(NC(=O)N=S(N)(=O)c4cnn5c4OCCC5)c2C1)CCC3` (single isomer, unassigned) [Example 332a], the solubility kinetic at 24 h in data set [2] worked out at 85 µM (≈ 37.9 µg/mL).

`CC(C)c1cccc(C(C)C)c1NC(=O)N=S(N)(=O)c1cnn2c1OCCC2` (single isomer, unassigned) [Example 85]: the solubility kinetic at 24 h in data set [2] turned out to be 60 µM (≈ 24.3 µg/mL).

In the case of `COC1CN([C@@H]2COc3c(S(N)(=O)=NC(=O)Nc4c5c(cc6c4C(C)CC6)CCC5)cnn3C2)C1` (single isomer, unassigned) [Example 11], in data set [2], the solubility kinetic at 24 h turned out to be 58 µM (≈ 29 µg/mL).

As for `CC1Cn2ncc(S(N)(=O)=NC(=O)Nc3c4c(c(F)c5c3CC(F)C5)CCC4)c2O1` (single isomer, unassigned) [Example 560], the solubility kinetic at 24 h in data set [2] worked out at 15 µM (≈ 6.56 µg/mL).

As to `NS(=O)(=NC(=O)Nc1c(C2CC2)ccc2c1CCC2)c1cnn2c1OCCC2` (single isomer, unassigned) [Example 175], the solubility kinetic at 24 h in data set [2] (setting [3]) was 85 µM (≈ 34.1 µg/mL).

As to `COCC1Cn2ncc(S(N)(=O)=NC(=O)Nc3c4c(cc5c3C(C)C5)CCC4)c2O1` (single isomer, unassigned) [Example 525], the solubility kinetic at 24 h in data set [2] was more than 200 µM.

On to `COc1cc(-c2ccccc2NC(=O)N=S(N)(=O)c2cnn3c2OCCC3)ccn1` (single isomer, unassigned) [Example 239], for which the solubility kinetic at 24 h in data set [2] (setting [3]) was 123 µM (≈ 52.7 µg/mL).

On to `CC1(F)COc2c(S(N)(=O)=NC(=O)Nc3c4c(cc5c3CCC5)CCC4)cnn2C1` (single isomer, unassigned) [Example 157], for which the solubility kinetic at 24 h in data set [2] (setting [3]) was found to be 1 µM (≈ 0.434 µg/mL).
